# Where a SMILES comes first, the peptide text is derived from it. Bridges are numbered along the chain shown (N, C = ends). [ ]: non-standard residue; d: D form. The star is where a group is joined. hPhe(3-Cl-4-CF3) = N[C@@H](CCc1ccc(C(F)(F)F)c(Cl)c1)C(=O)O; NPrPhe(4-CF3) = CCCN[C@@H](Cc1ccc(C(F)(F)F)cc1)C(=O)O; NMeGly(cPent) = CN[C@H](C(=O)O)C1CCCC1; NMeD = CN[C@@H](CC(=O)O)C(=O)O; NMeL = CN[C@@H](CC(C)C)C(=O)O; Morpholide = C1CN(*)CCO1; Ac4c = NC1(C(=O)O)CCC1; NEtG = CCNCC(=O)O; Sar = CNCC(=O)O
# How the values were obtained:
# [1] = target: GDP-bound HRAS wild-type protein (Homo sapiens, UniProt P01112); test: Binding to HRAS by surface plasmon resonance (SPR), Single Cycle Kinetics; settings: for HRAS/KRAS (ratio of KD value with respect to HRAS to KD value with respect to KRAS) / HRAS/KRAS (ratio of KD value for HRAS to KD value for KRAS): GDP-bound HRAS wild-type vs GDP-bound KRAS wild-type
# GDP-bound HRAS wild-type protein, sequence (P01112 whole entry): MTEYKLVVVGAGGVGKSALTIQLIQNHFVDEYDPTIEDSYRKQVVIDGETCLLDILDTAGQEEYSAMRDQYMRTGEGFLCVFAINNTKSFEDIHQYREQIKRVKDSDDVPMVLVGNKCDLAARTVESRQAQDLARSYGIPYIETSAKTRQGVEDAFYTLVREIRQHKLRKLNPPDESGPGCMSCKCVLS
# [2] = target: GDP-bound NRAS wild-type protein (Homo sapiens, UniProt P01111); test: Binding to NRAS by surface plasmon resonance (SPR), Single Cycle Kinetics; settings: for NRAS/KRAS (ratio of KD value with respect to NRAS to KD value with respect to KRAS) / NRAS/KRAS (ratio of KD value for NRAS to KD value for KRAS): GDP-bound NRAS wild-type vs GDP-bound KRAS wild-type
# GDP-bound NRAS wild-type protein, sequence (P01111 whole entry): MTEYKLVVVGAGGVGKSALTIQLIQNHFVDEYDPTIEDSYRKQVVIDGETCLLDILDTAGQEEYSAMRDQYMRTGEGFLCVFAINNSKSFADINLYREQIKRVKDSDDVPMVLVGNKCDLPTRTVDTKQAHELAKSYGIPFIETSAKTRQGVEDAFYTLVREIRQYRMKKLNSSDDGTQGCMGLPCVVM
# [3] = SPR, GDP-bound wild-type proteins
compound,measurement,setting,value
CC[C@H](C)[C@@H]1NC(=O)[C@H](CC)N(C)C(=O)C[C@@H](C(=O)N(C)C)N(C)C(=O)[C@H](C2CCCC2)N(C)C(=O)C2(CCC2)NC(=O)[C@@H]2C[C@H](C)CN2C(=O)[C@H](CCc2cc(F)c(C(F)(F)F)c(F)c2)NC(=O)CN(C)C(=O)[C@H](Cc2ccc(C(F)(F)F)cc2)N2CC/C=C\C[C@@H](C2=O)N(C)C(=O)CN(C)C1=O [PP1134],HRAS/KRAS (ratio of KD value with respect to HRAS to KD value with respect to KRAS),"[1]; KD ratio, SPR",B (a compound having 3 or more and less than 10 is denoted as B)
same,NRAS/KRAS (ratio of KD value with respect to NRAS to KD value with respect to KRAS),"[2]; KD ratio, SPR",A (a compound having 10 or more and less than 20 is denoted as A)
CC[C@H](C)[C@@H]1NC(=O)[C@H](CC(C)C)N(C)C(=O)C[C@@H](C(=O)N(CC)CC)N(C)C(=O)[C@H](C2CCCC2)N(C)C(=O)C2(CCC2)NC(=O)[C@@H]2C[C@@H](C)CN2C(=O)[C@H](CCc2ccc(C(F)(F)F)c(OC)c2)NC(=O)CN(C)C(=O)[C@H](Cc2ccc(C)cc2)N2CC/C=C\C[C@@H](C2=O)N(C)C(=O)CN(C)C1=O [PP1849],HRAS/KRAS (ratio of KD value for HRAS to KD value for KRAS),"[1]; KD ratio, SPR",A (a compound having 10 or more and less than 20 is denoted as A)
same,NRAS/KRAS (ratio of KD value for NRAS to KD value for KRAS),"[2]; KD ratio, SPR",A (a compound having 10 or more and less than 20 is denoted as A)
CCO[C@@H]1C[C@H]2C(=O)NC3(CCC3)C(=O)N(C)[C@@H](C3CCCC3)C(=O)N(C)[C@H](C(=O)N3CCOCC3)CC(=O)N(C)[C@@H](CC3CCCC3)C(=O)N[C@@H]([C@@H](C)CC)C(=O)N(C)CC(=O)N(C)[C@H]3CCCCN(C3=O)[C@@H](Cc3ccc(C(F)(F)F)cc3)C(=O)N(C)CC(=O)N[C@@H](CCc3cc(F)c(C(F)(F)F)c(F)c3)C(=O)N2C1 [PP0715],HRAS/KRAS (ratio of KD value with respect to GDP-bound HRAS wild-type protein to KD value with respect to KRAS),[1]; SPR,B (a compound having 3 or more and less than 10 is denoted as B)
same,NRAS/KRAS (ratio of KD value with respect to GDP-bound NRAS wild-type protein to KD value with respect to KRAS),[2]; SPR,C (A compound having a KD ratio of 0.1 or more and less than 3 is denoted as C)
CCC[C@H]1C(=O)N[C@@H]([C@@H](C)CC)C(=O)N(C2CC2)CC(=O)N(C)[C@H]2C/C=C\CCN(C2=O)[C@@H](CC2CCC(F)(F)CC2)C(=O)N(C)CC(=O)N[C@@H](CCc2ccc(Cl)c(Cl)c2)C(=O)N2C[C@H](OC(C)C)C[C@H]2C(=O)NC2(CC(C)(C)C2)C(=O)N(C)[C@@H](C2CCCC2)C(=O)N(C)[C@H](C(=O)N(C)C)CC(=O)N1C [PP2521],HRAS/KRAS (ratio of KD value with respect to HRAS to KD value with respect to KRAS),[1]; SPR,A (a compound having 10 or more and less than 20 is denoted as A)
same,NRAS/KRAS (ratio of KD value with respect to NRAS to KD value with respect to KRAS),[2]; SPR,A (a compound having 10 or more and less than 20 is denoted as A)
CCC(CC)[C@H]1C(=O)N(C)[C@H](C(=O)N(C)C)CC(=O)N(C)[C@@H](COC)C(=O)N[C@@H]([C@@H](C)CC)C(=O)N(C)CC(=O)N(C)[C@H]2C/C=C\CCN(C2=O)[C@@H](Cc2ccc(C)cc2)C(=O)N(C)CC(=O)N[C@@H](CCc2cc(F)c(C(F)(F)F)c(F)c2)C(=O)N2CCCCC[C@H]2C(=O)NC2(CC(C)(C)C2)C(=O)N1C [PP2960],HRAS/KRAS (ratio of KD value with respect to GDP-bound HRAS wild-type protein to KD value with respect to KRAS),[1]; class symbols,A (a compound having 10 or more and less than 20 is denoted as A)
same,NRAS/KRAS (ratio of KD value with respect to GDP-bound NRAS wild-type protein to KD value with respect to KRAS),[2]; class symbols,A (a compound having 10 or more and less than 20 is denoted as A)
CCCN1C(=O)CN(C)C(=O)CN(C)C(=O)[C@H]([C@@H](C)CC)NC(=O)[C@H](CC(C)C)N(C)C(=O)C[C@@H](C(=O)N2CCOCC2)N(C)C(=O)[C@H](C2CCCC2)N(C)C(=O)C2(CCC2)NC(=O)[C@@H]2CCCN2C(=O)[C@H](CCc2ccc(C(F)(F)F)c(Cl)c2)NC(=O)CN(CC)C(=O)[C@@H]1Cc1ccc(C(F)(F)F)cc1 [PP1950] ([NMeL]I[Sar][Sar][NPrPhe(4-CF3)][NEtG][hPhe(3-Cl-4-CF3)]P[Ac4c][NMeGly(cPent)][NMeD]-Morpholide; lactam N-11),HRAS/KRAS (ratio of KD value for HRAS to KD value for KRAS),"[1]; KD ratio, SPR",C (A compound having a KD ratio of 0.1 or more and less than 3 is denoted as C)
same,NRAS/KRAS (ratio of KD value for NRAS to KD value for KRAS),"[2]; KD ratio, SPR",B (a compound having 3 or more and less than 10 is denoted as B)
CCO[C@@H]1C[C@H]2C(=O)N(C)C3(CC(C)(C)C3)C(=O)N(C)[C@@H](C3CCCC3)C(=O)N(C)[C@H](C(=O)N(C)C)CC(=O)N(C)[C@H]3CCCC/C=C/c4ccc(cc4)C[C@@H](C(=O)N(C)CC(=O)N[C@@H](CCc4ccc(Cl)c(Cl)c4)C(=O)N2C1)N1CC/C=C\C[C@@H](C1=O)N(C)C(=O)CN(C)C(=O)[C@H]([C@@H](C)CC)NC3=O [PP3062],HRAS/KRAS (ratio of KD value with respect to GDP-bound HRAS wild-type protein to KD value with respect to KRAS),[1]; [3],A (a compound having 10 or more and less than 20 is denoted as A)
same,NRAS/KRAS (ratio of KD value with respect to GDP-bound NRAS wild-type protein to KD value with respect to KRAS),[2]; [3],A (a compound having 10 or more and less than 20 is denoted as A)
